We go through 2 compounds from patent US12319659B2, “Selective ligand for dopamine D3 receptor, preparation method therefor, and pharmaceutical application thereof” (Shenzhen Linglan Bio-Pharmaceutical Technology Co., Ltd, priority 2017, dated 2025).

Where a name gives a salt, the structure may show the parent alone. Bounds are passed on as bounds.

The subject of series [1] is 6-OHDA-induced Parkinson's disease rats. The experiment in a line: Rotarod assay in 6-hydroxydopamine-induced Parkinson's disease rats. It is filed as in vivo, Sprague Dawley (SD) rats. As for the experimental part:
Experimental Sprague Dawley (SD) rats were randomly divided into an experimental group and a control group. After repeated behavior detection confirmed that there was no rotational behavior, the experiment was performed. Experimental group: rats were anesthetized with a mixture of xylazine (15 mg/kg, i.p.) and ketamine (100 mg/kg, i.p.), and then desipramine hydrochloride (25 mg/kg, s.c.) were used to protect noradrenergic neurons. 6 μg of 6-hydroxydopamine was dissolved in 2.3 μL of 0.9% sterile saline, and injected into the cerebral substantia nigra (antero-posterior −5.4 mm, […] from the bregma which was used as a zero coordinate) at a rate of 0.5 μL/min by using cerebral stereotaxic surgery. Rats in the control group were injected with the same dose of 0.9% sterile saline. After injection, the syringe needle was left in rats for 5 minutes before the needle was slowly withdrawn. After the rats awakened, they were placed in animal facilities for behavioral model evaluation to ensure that 6-hydroxydopamine induced the formation of a model with movement disorders and emotional/motivational disorders. Because hunger is prone to occur as a result of dopamine damage of the midbrain substantia nigra, 20% of rats were given high-calorie food for 1-2 weeks. After 19 days, the D3 receptor-selective ligand was continuously injected intraperitoneally for 3 days. Rats were allowed to accommodate the rotarod on days 19-20, and a rotarod assay was performed on days 21-22.
(Falling from the rotarod earlier than controls is read as motor impairment.)

Series [2] in a line: Solubility assay in anhydrous ethanol. It is filed as physicochemical. As to conditions: organic solvent or mixture. The source says:
(§1) Solubility Assay of the D3 Receptor-Selective Ligand

Series [3] in a line: Solubility assay in water. It is filed as physicochemical.
Excerpt: as §1

The target in series [4] is T1, dopamine D3 receptor (Homo sapiens, UniProt P35462). The series can be described thus: cell-based.
T1 sequence (P35462 whole entry): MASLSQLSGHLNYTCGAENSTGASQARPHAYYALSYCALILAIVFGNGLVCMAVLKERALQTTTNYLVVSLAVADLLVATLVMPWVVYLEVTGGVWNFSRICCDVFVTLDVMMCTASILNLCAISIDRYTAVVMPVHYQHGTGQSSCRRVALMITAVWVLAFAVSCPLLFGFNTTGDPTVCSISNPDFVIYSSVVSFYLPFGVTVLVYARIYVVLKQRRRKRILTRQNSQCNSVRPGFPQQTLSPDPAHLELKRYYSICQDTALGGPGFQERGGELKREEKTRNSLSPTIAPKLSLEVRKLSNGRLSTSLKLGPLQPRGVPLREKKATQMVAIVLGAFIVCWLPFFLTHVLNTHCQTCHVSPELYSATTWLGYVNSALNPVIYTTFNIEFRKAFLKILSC
Experimental: (§3) Human embryonic kidney-293 cells were cultured in fresh MEM medium containing 10% fetal bovine serum, 100 units of penicillin, and 100 μg/mL streptomycin at 37° C. under 5% CO2. Cells were transfected with DNA plasmids of dopamine D2 and D3 receptors respectively by using polyethylenimine. After transfection for 4 hours, medium was replaced with fresh MEM medium containing fetal bovine serum and the cells were further cultured for 24 hours. The cells were seeded into 24-well plates and cultured for 14-16 hours or overnight. After the medium was discarded, the cells were rinsed with pre-cooled serum-free MEM. Radioligand ([^3H]-sulpiride) and various concentrations of compounds were added into the adherent cells, and incubated in a bath at 4° C. for 150 minutes. The cells were rinsed three times with pre-cooled MEM containing 10 mM HEPES to remove unbound ligands. After the medium was completely removed, the cells were lysed with 1% sodium lauryl sulfate. The remaining radioligands were detected with a liquid scintillation counter to calculate the relative amount of bound compounds.
In series [5] the target is T2, dopamine D2 receptor (Homo sapiens, UniProt P14416).
T2 construct: expressed in transfected cells; host or cells: Human embryonic kidney-293 cells
T2 sequence (P14416 whole entry): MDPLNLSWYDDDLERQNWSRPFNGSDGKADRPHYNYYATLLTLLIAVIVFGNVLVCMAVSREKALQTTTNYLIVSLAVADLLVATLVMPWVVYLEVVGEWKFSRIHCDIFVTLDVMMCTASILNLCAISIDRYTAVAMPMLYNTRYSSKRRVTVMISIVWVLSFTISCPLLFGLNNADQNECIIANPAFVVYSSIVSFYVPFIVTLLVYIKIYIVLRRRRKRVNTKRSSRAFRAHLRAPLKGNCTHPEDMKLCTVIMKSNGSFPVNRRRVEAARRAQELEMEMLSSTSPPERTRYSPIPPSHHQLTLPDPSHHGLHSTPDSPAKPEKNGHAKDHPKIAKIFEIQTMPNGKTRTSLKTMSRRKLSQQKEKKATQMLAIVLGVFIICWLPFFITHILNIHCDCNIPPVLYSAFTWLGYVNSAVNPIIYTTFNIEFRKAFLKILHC
The experiment in a line: Competitive inhibition test using radioligands ([3H]-sulpiride), D2 receptor. The class given is binding. As to conditions: for Ki: [3H]-sulpiride competition, HEK-293 cells, read-out: KiD2R.
Experimental: as §3

Series [6] deals with T2, dopamine D2 receptor. The experiment in a line: Intrinsic functional experiment, CRE luciferase reporter gene assay, D2 receptor. The class given is cell-based. As to conditions: 2 μM forskolin, HEK-293 cells, quinpirole positive control. As to the method: (§2) Human embryonic kidney-293 cells were transfected with complementary DNA of human dopamine D2, D3 and D4 receptors and a luciferase reporter gene transcriptionally controlled by CRE. The cells transfected with an empty vector were used as a negative control. The cells were seeded into 24-well plates, and 2 μM of forskolin and various concentrations of compounds were added. Cells added with quinpirole were used as a positive control group. After four hours' incubation, cells were lysed with cell lysis buffer for 20 minutes and then centrifuged. The supernatant was reacted with 25 μL of luciferase substrate and the expression level of luciferase was detected by using a dual luciferase reporter vector kit.
(In general: In a reporter assay the amount or activity of a reporter protein is the signal.)

Series [7] deals with T3, human dopamine D4 receptor (Homo sapiens, UniProt P21917).
T3 construct: expressed in transfected cells; host or cells: Human embryonic kidney-293 cells
T3 sequence (P21917 1-419): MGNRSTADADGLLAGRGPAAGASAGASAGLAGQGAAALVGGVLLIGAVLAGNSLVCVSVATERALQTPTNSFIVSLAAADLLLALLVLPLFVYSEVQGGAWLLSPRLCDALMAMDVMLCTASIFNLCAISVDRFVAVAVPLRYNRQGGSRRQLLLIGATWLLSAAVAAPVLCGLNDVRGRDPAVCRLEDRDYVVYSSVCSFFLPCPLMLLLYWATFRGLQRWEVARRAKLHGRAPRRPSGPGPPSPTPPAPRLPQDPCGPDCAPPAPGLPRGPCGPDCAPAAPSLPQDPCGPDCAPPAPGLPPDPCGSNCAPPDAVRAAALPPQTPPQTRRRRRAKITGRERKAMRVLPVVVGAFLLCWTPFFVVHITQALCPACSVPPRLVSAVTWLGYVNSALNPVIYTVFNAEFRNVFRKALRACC
The experiment in a line: Intrinsic functional experiment, CRE luciferase reporter gene assay, D4 receptor. It is filed as cell-based. Conditions: 2 μM forskolin, HEK-293 cells, quinpirole positive control. As for the experimental part: as §2

The target of series [8] is T1, dopamine D3 receptor.
Experimental: as §3
Series [9] concerns the target T1, dopamine D3 receptor. The experiment in a line: Intrinsic functional experiment, CRE luciferase reporter gene assay, D3 receptor. Further details: expressed in transfected cells; host or cells: Human embryonic kidney-293 cells. The class given is cell-based. Conditions: 2 μM forskolin, HEK-293 cells, quinpirole positive control. As to the method: as §2
The mark [10] stands for this setting: intraperitoneal for 3 days, 6-hydroxydopamine rats.

As usually defined, the solubility is how much of the substance goes into solution per volume. `O=C(NCCCCN1CCN(c2ccc(Cl)cc2)CC1)Nc1cnc2ccccc2c1` [8i•HCl, 1-(4-(4-(4-chlorophenyl)piperazin-1-yl)butyl)-3-(quinolin-3-yl)urea]: the “effect compared with apomorphine (positive control drug)” value in [1] (6-hydroxydopamine rats) is “comparable to the effect of apomorphine”. For the same compound, in series [1] (intraperitoneal for 3 days), the “motor dysfunction induced by 6-hydroxydopamine” value is on record as “significantly improved”. Further, the solubility in [2] (8.53 mg/mL) and in series [2] (25.6 mg/mL) was less than 8530 µg/mL throughout. Also, the Solubility in water entry in [3] (1 mg/mL), in series [3] (3 mg/mL), in series [3] (6 mg/mL) and in series [3] (12 mg/mL) was “+ (+ indicates that the compound was completely dissolved)” in each case. Also, the Ki worked out at 14.3 nM at dopamine D3 receptor [4] and 53100 nM at dopamine D2 receptor [5]. The “D2 Receptor Displacement (%)” value on dopamine D2 receptor [5] (arylpiperazine-arylurea compounds at 100 nM, [3H]-sulpiride, HEK-293 cells (Table 2)) was found to be 15.2 ± 1.6%.

For `O=C(NCCCCN1CCN(c2ccc(Cl)cc2)CC1)Nc1cnc2ccccc2c1` [Compound 8i, 1-(4-(4-(4-chlorophenyl)piperazin-1-yl)butyl)-3-(quinolin-3-yl)urea], the “activation of signaling pathways downstream of D2 receptors” value at dopamine D2 receptor [6] is “didn't activate”. Besides, in series [7], the “activation of signaling pathways downstream of D4 receptors (printed as D3 receptors)” value was “didn't activate”. Moreover, the frequency of falling entry in series [1] (setting [10]) is “reduced the frequency of falling”. For the same compound, in series [1] (setting [10]), the latency to fall entry was “increased the latency to fall”. The selectivity ratio at dopamine D3 receptor [8] is more than 10000. The results for the solubility in [2] (3.3 mg/mL), in series [2] (5 mg/mL) and in [2] (10 mg/mL) were more than 3300 µg/mL, less than 5000 µg/mL and less than 5000 µg/mL, respectively. For the same compound, at dopamine D3 receptor [9], the “activation of signaling pathways downstream of D3 receptors” value was “activated signaling pathways downstream of D3 receptors”. In addition, the Solubility in water result in series [3] (1 mg/mL) is recorded as “+ (+ indicates that the compound was completely dissolved)”; in series [3] (3 mg/mL) it was “− (− indicates that the compound was un-dissolved or not completely dissolved)”; in series [3] (6 mg/mL) it was “− (− indicates that the compound was un-dissolved or not completely dissolved)”; in series [3] (12 mg/mL), “− (− indicates that the compound was un-dissolved or not completely dissolved)”. Besides, the Ki was 7.4 nM on dopamine D3 receptor [4] and more than 79600 nM at dopamine D2 receptor [5]. Moreover, at dopamine D2 receptor [5] ([…], arylpiperazine-arylurea compounds at 100 nM, [3H]-sulpiride, HEK-293 cells (Table 2), read-out: D2 Receptor Displacement (%)), the inhibition is 10.2 ± 6.7%.
